Measurements published in ChEMBL document CHEMBL1127434, “Discovery of nanomolar ligands for 7-transmembrane G-protein-coupled receptors from a diverse N-(substituted)glycine peptoid library” (J Med Chem, 1994).
Values belong to the compound of their own block, whether it stands above or below them.

Assays:
[1] = target: T1, Adrenergic receptor alpha-1 (Rattus norvegicus, UniProt P15823+P23944+P43140); test: Compound was evaluated for its binding affinity against alfa1 adrenergic receptors.; format: protein assay
T1 sequence (P15823 whole entry): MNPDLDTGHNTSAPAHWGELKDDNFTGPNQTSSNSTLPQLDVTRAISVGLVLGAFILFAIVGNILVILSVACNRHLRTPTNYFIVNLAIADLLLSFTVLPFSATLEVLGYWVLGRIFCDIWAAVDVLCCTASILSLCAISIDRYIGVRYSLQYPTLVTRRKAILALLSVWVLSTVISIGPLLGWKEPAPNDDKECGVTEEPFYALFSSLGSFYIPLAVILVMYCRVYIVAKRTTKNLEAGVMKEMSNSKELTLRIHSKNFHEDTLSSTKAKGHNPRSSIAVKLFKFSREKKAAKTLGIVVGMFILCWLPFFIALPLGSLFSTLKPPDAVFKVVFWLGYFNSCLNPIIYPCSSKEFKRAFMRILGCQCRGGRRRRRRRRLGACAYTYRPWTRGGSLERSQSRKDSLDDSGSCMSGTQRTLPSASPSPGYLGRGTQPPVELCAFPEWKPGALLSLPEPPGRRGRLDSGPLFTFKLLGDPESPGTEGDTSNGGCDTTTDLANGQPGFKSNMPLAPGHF
T1 sequence (P23944 whole entry): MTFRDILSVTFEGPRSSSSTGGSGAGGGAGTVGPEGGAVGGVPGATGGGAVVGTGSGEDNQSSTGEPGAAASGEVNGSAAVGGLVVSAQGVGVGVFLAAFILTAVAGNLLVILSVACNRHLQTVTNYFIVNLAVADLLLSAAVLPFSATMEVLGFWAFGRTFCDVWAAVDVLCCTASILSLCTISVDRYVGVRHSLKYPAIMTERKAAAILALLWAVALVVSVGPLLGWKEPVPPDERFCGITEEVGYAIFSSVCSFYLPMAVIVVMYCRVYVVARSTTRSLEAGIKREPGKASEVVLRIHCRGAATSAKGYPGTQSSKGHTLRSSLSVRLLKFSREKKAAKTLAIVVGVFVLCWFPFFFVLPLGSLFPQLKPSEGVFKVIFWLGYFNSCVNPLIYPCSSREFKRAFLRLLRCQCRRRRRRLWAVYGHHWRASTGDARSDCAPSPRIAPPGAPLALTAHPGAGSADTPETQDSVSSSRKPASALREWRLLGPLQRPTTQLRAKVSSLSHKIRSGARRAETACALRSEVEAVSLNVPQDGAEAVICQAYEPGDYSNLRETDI
T1 sequence (P43140 whole entry): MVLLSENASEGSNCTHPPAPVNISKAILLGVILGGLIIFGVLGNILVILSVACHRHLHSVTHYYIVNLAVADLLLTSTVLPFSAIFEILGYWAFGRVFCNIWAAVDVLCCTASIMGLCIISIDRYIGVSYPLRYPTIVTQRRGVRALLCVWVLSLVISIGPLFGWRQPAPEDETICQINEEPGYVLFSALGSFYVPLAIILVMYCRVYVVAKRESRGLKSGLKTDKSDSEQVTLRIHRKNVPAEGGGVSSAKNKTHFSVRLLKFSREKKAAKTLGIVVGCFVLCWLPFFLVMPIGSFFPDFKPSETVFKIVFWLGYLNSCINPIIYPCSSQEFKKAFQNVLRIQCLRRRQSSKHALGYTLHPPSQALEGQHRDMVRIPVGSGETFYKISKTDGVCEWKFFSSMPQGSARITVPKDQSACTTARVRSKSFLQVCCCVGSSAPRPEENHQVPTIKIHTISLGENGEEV

[2] = target: Mu-type opioid receptor (Rattus norvegicus, UniProt P33535); test: Compound was evaluated for binding affinity towards mu-specific opiate receptor from rat brain membrane using [3H]DAMGO
Sequence of Mu-type opioid receptor (P33535 whole entry): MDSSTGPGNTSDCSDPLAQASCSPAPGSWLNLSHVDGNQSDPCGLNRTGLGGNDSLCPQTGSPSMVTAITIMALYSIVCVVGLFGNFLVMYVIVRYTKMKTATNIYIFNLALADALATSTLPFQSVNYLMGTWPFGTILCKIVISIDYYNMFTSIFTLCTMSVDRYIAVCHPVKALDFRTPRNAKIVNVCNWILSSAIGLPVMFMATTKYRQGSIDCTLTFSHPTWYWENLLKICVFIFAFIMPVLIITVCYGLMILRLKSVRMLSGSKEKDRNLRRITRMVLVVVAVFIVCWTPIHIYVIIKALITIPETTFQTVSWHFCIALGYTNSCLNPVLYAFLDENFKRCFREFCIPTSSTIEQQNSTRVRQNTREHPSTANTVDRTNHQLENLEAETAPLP

[3] = target: T1, Adrenergic receptor alpha-1
Description: Compound was evaluated for binding affinity towards alpha-1 adrenergic receptors from combinatorial peptoid library

[4] = target: T1, Adrenergic receptor alpha-1; test: Compound was evaluated for its binding affinity against alpha-1 adrenergic receptors; format: protein assay

- Ki [1]: 5 nM
SMILES: NC(=O)CN(CCc1ccccc1)C(=O)CN(C(=O)CNCCc1ccc(O)cc1)c1ccc(-c2ccccc2)cc1

SMILES: COc1ccc(CN(CC(=O)N(CCc2ccc(O)cc2)CC(N)=O)C(=O)CNCC(c2ccccc2)c2ccccc2)cc1OC
- Ki [2]: 31 nM

SMILES: NC(=O)CN(CCc1ccc(O)cc1)C(=O)CN(Cc1ccc2c(c1)OCO2)C(=O)CNCC(c1ccccc1)c1ccccc1
- Ki [2]: 6 nM

- Ki [3]: 4 nM
SMILES: NC(=O)CN(CCc1ccccc1)C(=O)CN(C(=O)CNCCc1ccccc1)c1ccc(-c2ccccc2)cc1

- Ki [4]: 310 nM
SMILES: NC(=O)CN(C(=O)CN(C(=O)CNCCc1ccc(O)cc1)c1ccc(-c2ccccc2)cc1)c1ccc(-c2ccccc2)cc1

SMILES: CCCCCN(CC(=O)N(CCc1ccc(O)cc1)CC(N)=O)C(=O)CNCC(c1ccccc1)c1ccccc1
- Ki [2]: 46 nM

- Ki [4]: 140 nM
SMILES: NC(=O)CN(CCc1ccccc1)C(=O)CN(C(=O)CNCCc1ccc(O)cc1)c1ccc(Oc2ccccc2)cc1
